From patent US7739055B2, “Methods and systems for generating and evaluating peptides” (priority 2005, dated 2010)
In brackets after ≈: the same amount, converted by molar mass. Read-outs that look alike come from different tables or passages of the source. Where a SMILES comes first, the peptide text is derived from it.

Key:
[1] = test system: Smith Diffuse strain of Staphylococcus aureus
[2] = test system: Sterne strain of Bacillus anthracis
[3] = first concentration that prohibits growth by OD at 24 hours, Table 1

Compound	MIC E. coli (Escherichia coli; 24 h) [µg/mL]	MIC B. cereus (B. cereus; 24 h) [µg/mL]	MIC S. aureus ([1]; Smith Diffuse strain of) [µg/mL]	MIC B. anthracis [2]	HC50, hemolytic concentration at which the peptides lyse 50% of human red blood cells (human red blood cells)	MIC E. coli (Escherichia coli; [3])	MIC B. cereus (B. cereus; [3])	MIC S. aureus ([1]; Smith Diffuse strain, Table 1)	MIC B. cereus (B. cereus)	MIC S. aureus [1]	MIC E. coli (Escherichia coli)
CC(C)C[C@H](NC(=O)[C@H](CCCCN)NC(=O)[C@H](Cc1ccccc1)NC(=O)[C@@H](NC(=O)[C@@H](NC(=O)CNC(=O)[C@H](CC(C)C)NC(=O)[C@@H](N)Cc1ccccc1)C(C)C)C(C)C)C(=O)N[C@@H](C)C(=O)N[C@@H](CO)C(=O)N[C@@H](CCCCN)C(=O)N[C@H](C(=O)N[C@@H](Cc1ccccc1)C(=O)N1CCC[C@H]1C(=O)N[C@@H](C)C(=O)N[C@H](C(=O)N[C@@H](Cc1ccccc1)C(=O)NCC(=O)N[C@@H](CCCCN)C(=O)N[C@H](C(=O)O)C(C)C)C(C)C)C(C)C [Peptide 28] (H-FLGVVFKLASKVFPAVFGKV-OH; N-terminus and C-terminus assumed)	64 (≈ 29.7 µM)	16 (≈ 7.43 µM)	8 (≈ 3.71 µM)	16 µg/mL (≈ 7.43 µM)	42 µg/mL						
CC(C)C[C@H](NC(=O)CNC(=O)[C@H](Cc1ccccc1)NC(=O)[C@H](CC(C)C)NC(=O)[C@@H](N)Cc1ccccc1)C(=O)N[C@@H](C)C(=O)N[C@@H](CO)C(=O)N[C@@H](CCCCN)C(=O)N[C@H](C(=O)N[C@@H](Cc1ccccc1)C(=O)N1CCC[C@H]1C(=O)N[C@@H](C)C(=O)N[C@H](C(=O)N[C@@H](Cc1ccc(O)cc1)C(=O)N[C@@H](CS)C(=O)N[C@@H](CCCCN)C(=O)N[C@H](C(=O)N[C@H](C(=O)N[C@@H](CCCNC(=N)N)C(=O)N[C@@H](CCCCN)C(=O)O)[C@@H](C)O)C(C)C)C(C)C)C(C)C [Peptide 5] (H-FLFGLASKVFPAVYCKVTRK-OH; N-terminus and C-terminus assumed)	64 (≈ 28.1 µM)	256 (≈ 113 µM)	256 (≈ 113 µM)	128 µg/mL (≈ 56.3 µM)							
CC(C)C[C@H](NC(=O)[C@H](CCCCN)NC(=O)[C@H](Cc1ccccc1)NC(=O)[C@H](CC(C)C)NC(=O)[C@@H](NC(=O)[C@@H]1CCCN1C(=O)[C@@H](N)CC(C)C)C(C)C)C(=O)N[C@@H](C)C(=O)N[C@@H](CO)C(=O)N[C@@H](CCCCN)C(=O)N[C@H](C(=O)N[C@@H](Cc1ccccc1)C(=O)N1CCC[C@H]1C(=O)N[C@@H](C)C(=O)N[C@H](C(=O)N[C@@H](Cc1ccccc1)C(=O)N[C@@H](CO)C(=O)N[C@@H](CO)C(=O)N[C@@H](CC(C)C)C(=O)N[C@@H](CCCCN)C(=O)O)C(C)C)C(C)C [Peptide 63] (H-LPVLFKLASKVFPAVFSSLK-OH; N-terminus and C-terminus assumed)	256 (≈ 117 µM)	64 (≈ 29.2 µM)	128 (≈ 58.4 µM)	128 µg/mL (≈ 58.4 µM)							
KVFIATLVVSSFLLAKPPRV [Shuffled 35]				+ (key: +: MIC greater than 256 ug/mL; ++: MIC greater than 128 ug/mL, not sufficiently soluble to test as 256 ug/mL)		+ (MIC greater than 256 ug/mL)	+ (MIC greater than 256 ug/mL)	+ (MIC greater than 256 ug/mL)			
THIHMNARLLIRSPFTDPQL [Peptide 10]				+ (key: +: MIC greater than 256 ug/mL; ++: MIC greater than 128 ug/mL, not sufficiently soluble to test as 256 ug/mL)		+ (MIC greater than 256 ug/mL)			+ (key: +: MIC greater than 256 ug/mL; ++: MIC greater than 128 ug/mL, not sufficiently soluble to test as 256 ug/mL)	+ (key: +: MIC greater than 256 ug/mL; ++: MIC greater than 128 ug/mL, not sufficiently soluble to test as 256 ug/mL)	
CC(C)C[C@H](NC(=O)[C@H](C)NC(=O)[C@H](CO)NC(=O)[C@H](Cc1ccccc1)NC(=O)[C@@H](NC(=O)[C@H](CO)NC(=O)[C@@H]1CCCN1C(=O)[C@@H](NC(=O)[C@@H](NC(=O)[C@H](CCCCN)NC(=O)[C@H](CO)NC(=O)[C@H](C)NC(=O)[C@H](CC(C)C)NC(=O)[C@H](CCCCN)NC(=O)[C@H](Cc1ccccc1)NC(=O)[C@@H](NC(=O)[C@H](Cc1ccccc1)NC(=O)[C@@H](N)CO)C(C)C)C(C)C)C(C)C)C(C)C)C(=O)N[C@H](C(=O)N[C@@H](CCCNC(=N)N)C(=O)O)[C@@H](C)O [Peptide 43] (H-SFVFKLASKVVPSVFSALTR-OH; N-terminus and C-terminus assumed)	256	256	256	128 µg/mL							
CC[C@H](C)[C@H](NC(=O)[C@H](CC(C)C)NC(=O)[C@H](C)NC(=O)[C@@H]1CCCN1C(=O)[C@H](Cc1ccccc1)NC(=O)[C@@H](NC(=O)[C@H](CCCCN)NC(=O)[C@H](CO)NC(=O)[C@H](C)NC(=O)[C@@H](NC(=O)[C@H](CCCNC(=N)N)NC(=O)[C@H](Cc1ccccc1)NC(=O)[C@@H](NC(=O)[C@@H](NC(=O)[C@@H]1CCCN1C(=O)[C@@H](N)CC(C)C)C(C)C)C(C)C)C(C)C)C(C)C)C(=O)N[C@@H](CO)C(=O)N[C@@H](CCCCN)C(=O)N[C@@H](CC(C)C)C(=O)N[C@H](C(=O)O)[C@@H](C)O [Peptide 35] (H-LPVVFRVASKVFPALISKLT-OH; N-terminus and C-terminus assumed)		256 (≈ 117 µM)	256 (≈ 117 µM)	128 µg/mL (≈ 58.6 µM)							+ (key: +: MIC greater than 256 ug/mL; ++: MIC greater than 128 ug/mL, not sufficiently soluble to test as 256 ug/mL)
CC(C)C[C@H](NC(=O)[C@@H](NC(=O)[C@@H]1CCCN1C(=O)[C@H](CC(C)C)NC(=O)[C@@H](N)Cc1ccccc1)C(C)C)C(=O)N[C@H](C(=O)N[C@@H](CCCCN)C(=O)N[C@H](C(=O)N[C@@H](Cc1ccccc1)C(=O)N[C@@H](CCCNC(=N)N)C(=O)N[C@@H](Cc1ccc(O)cc1)C(=O)N[C@@H](CO)C(=O)N[C@@H](CCCCN)C(=O)N[C@@H](CCCCN)C(=O)N[C@H](C(=O)N[C@@H](C)C(=O)N[C@@H](C)C(=O)NCC(=O)N[C@@H](CS)C(=O)N[C@@H](Cc1ccccc1)C(=O)O)[C@@H](C)O)C(C)C)C(C)C [Shuffled 5] (H-FLPVLVKVFRYSKKTAAGCF-OH; N-terminus and C-terminus assumed)		64 (≈ 28.1 µM)		+ (key: +: MIC greater than 256 ug/mL; ++: MIC greater than 128 ug/mL, not sufficiently soluble to test as 256 ug/mL)		++ (MIC greater than 128 ug/mL, not sufficiently soluble to test as 256 ug/mL)		+ (MIC greater than 256 ug/mL)			
GVSVAGAKKVKVLFVFPFLF [Shuffled 28]				+ (key: +: MIC greater than 256 ug/mL; ++: MIC greater than 128 ug/mL, not sufficiently soluble to test as 256 ug/mL)		+ (MIC greater than 256 ug/mL)	+ (MIC greater than 256 ug/mL)	+ (MIC greater than 256 ug/mL)			
SVPSVGAVLFFKRAAVMKLI [Shuffled 22]				+ (key: +: MIC greater than 256 ug/mL; ++: MIC greater than 128 ug/mL, not sufficiently soluble to test as 256 ug/mL)		+ (MIC greater than 256 ug/mL)	+ (MIC greater than 256 ug/mL)	+ (MIC greater than 256 ug/mL)			
CC[C@H](C)[C@H](NC(=O)[C@H](CC(C)C)NC(=O)[C@H](C)NC(=O)[C@@H]1CCCN1C(=O)[C@H](Cc1ccccc1)NC(=O)[C@@H](NC(=O)[C@H](CCCCN)NC(=O)[C@H](CO)NC(=O)[C@H](C)NC(=O)[C@@H](NC(=O)[C@H](CCCNC(=N)N)NC(=O)[C@H](Cc1ccccc1)NC(=O)[C@H](CC(C)C)NC(=O)[C@@H](N)Cc1ccccc1)C(C)C)C(C)C)C(=O)NCC(=O)N[C@@H](CCCCN)C(=O)N[C@@H](Cc1ccccc1)C(=O)N[C@@H](CCCCN)C(=O)N[C@@H](CCCCN)C(=O)N[C@@H](CCCCN)C(=O)O [Peptide 51] (H-FLFRVASKVFPALIGKFKKK-OH; N-terminus and C-terminus assumed)	64 (≈ 27.5 µM)	16 (≈ 6.88 µM)	16 (≈ 6.88 µM)	16 µg/mL (≈ 6.88 µM)	greater than 512 μg/ml						
CC[C@H](C)[C@H](NC(=O)[C@@H](NC(=O)[C@H](C)NC(=O)[C@@H]1CCCN1C(=O)[C@H](Cc1ccccc1)NC(=O)[C@@H](NC(=O)[C@H](CCCCN)NC(=O)[C@H](CO)NC(=O)[C@H](C)NC(=O)[C@@H](NC(=O)[C@H](CCCNC(=N)N)NC(=O)[C@H](Cc1ccccc1)NC(=O)[C@H](CC(C)C)NC(=O)[C@H](C)NC(=O)CNC(=O)[C@@H](N)CC(C)C)C(C)C)C(C)C)C(C)C)C(=O)N[C@@H](CO)C(=O)N[C@@H](CCSC)C(=O)N[C@H](C(=O)N[C@@H](CCCCN)C(=O)O)C(C)C [Peptide 22] (H-LGALFRVASKVFPAVISMVK-OH; N-terminus and C-terminus assumed)	256 (≈ 120 µM)	64 (≈ 30 µM)	64 (≈ 30 µM)	64 µg/mL (≈ 30 µM)							
ASPTVFRSSVFLSLFVVAKK [Shuffled 43]				+ (key: +: MIC greater than 256 ug/mL; ++: MIC greater than 128 ug/mL, not sufficiently soluble to test as 256 ug/mL)		+ (MIC greater than 256 ug/mL)	+ (MIC greater than 256 ug/mL)	+ (MIC greater than 256 ug/mL)			
